Assay results: the NIST ThermoML archive (doi:10.1021/je500498m)
Values joined by “and” are separate entries in the source; they are usually repeats but may differ in a detail not shown here. Equal entries are not always repeated.

Experiments:
[1] = xn = mol fraction of the nth substance listed; details: x1 = 1; for speed of sound: 100 kPa, Sing-around technique in a fixed-path interferometer; for speed of sound / viscosity / mass density: Liquid; for viscosity / mass density: 101 kPa; for viscosity: Falling or rolling sphere viscometry; for mass density: Vibrating tube method
[2] = for speed of sound: 100 kPa, Sing-around technique in a fixed-path interferometer; for speed of sound / viscosity / mass density: Liquid; for viscosity / mass density: 101 kPa; for viscosity: Falling or rolling sphere viscometry; for mass density: Vibrating tube method

CCc1ccccc1 [ethylbenzene] + CCCCCCCCCCCCCCCC
[1]
Details | mass density [kg/m3] | speed of sound [m/s] | viscosity [mPa·s]
293.15 K | 866.95 | 1339.7 | 0.67
303.15 K | 858.15 | 1298.1 | 0.59
313.15 K | 849.29 | 1256.9 | –
323.15 K | 840.38 | 1216.4 | 0.48
333.15 K | 831.4 | 1176.4 | 0.44
343.15 K | 822.3 | – | 0.4
353.15 K | 813.1 | – | 0.36
363.15 K | 803.7 | – | 0.33
373.15 K | 794.2 | – | 0.31

Details | surface tension liquid-gas [mN/m]
[1], 294.4 K, Pendant drop shape | 29.2

CCCCCCCCCCCCCCCC [hexadecane]
[2]
Details | mass density [kg/m3] | speed of sound [m/s] | viscosity
293.15 K | 773.49 | 1357.3 | 3.44 mPa·s
303.15 K | 766.55 | 1320 | 2.72 mPa·s
313.15 K | 759.63 | 1283.3 | –
323.15 K | 752.71 | 1247.3 | 1.82 mPa·s
333.15 K | 745.79 | 1212 | 1.54 mPa·s and 1.53 mPa·s
343.15 K | 738.9 | – | 1.31 mPa·s
353.15 K | 731.8 | – | 1.13 mPa·s
363.15 K | 724.7 | – | 0.99 mPa·s
373.15 K | 717.5 | – | 0.87 mPa·s

Details | surface tension liquid-gas [mN/m]
[2], 294.4 K, Pendant drop shape | 27.3
